Test results: patent publication US20160095867A1, “BET INHIBITION THERAPY FOR HEART DISEASE” (DANA-FARBER CANCER INSTITUTE, INC., priority 2013, published 2016)

How the values were obtained:
mice subject to TAC = test: Transverse aortic constriction (TAC) model, JQ1 begun 1.5 days after TAC; format: in vivo, mouse
Experimental: JQ1 was synthesized and purified in the laboratory of Dr. James Bradner (DFCI) as previously published (Filippakopoulos et al., 2010). For in vivo experiments, a stock solution (50 mg/mL in DMSO) was diluted to a working concentration of 5 mg/mL in aqueous carrier (10% hydroxypropyl β-cyclodextrin; Sigma C0926) using vigorous vortexing. Mice were injected at a dose of 50 mg/kg given intraperitoneally once daily. Vehicle controls were given an equal amount of DMSO in carrier solution. All solutions were prepared and administered using sterile technique. For in vitro experiments, JQ1 and other BET inhibitors were dissolved in DMSO and administered to cells at indicated concentrations using an equal volume of DMSO as control. The BET inhibitors used were as follows: iBET, iBET-151, RVX-208, and PF-1.
All mice were C57Bl/6J littermate males aged 10-12 weeks. For TAC, mice were anesthetized with ketamine/xylazine, mechanically ventilated (Harvard apparatus), and subject to thoracotomy. The aortic arch was constricted between the left and right carotid arteries using a 7.0 silk suture and a 27-gauge needle as previously described (Hu et al., 2003). In our hands, this protocol a consistent peak pressure gradient of approximately 50 mmHg across the constricted portion of the aorta. For PE infusion, mice were anesthetized using continuous 1% inhalational isofluorane. Mini-osmotic pumps (Alzet 2004, Durect Corp.) were filled with phenylephrine hydrochloride (PE, Sigma) or vehicle (normal saline) and implanted subcutaneously on the dorsal aspect of the mouse. PE was infused at a dose of 75 mg/kg/day for 17 days. Injections of JQ1 or vehicle were begun 1.5 days postoperatively.
For transthoracic echocardiography, mice were anesthetized with 1% inhalational isofluorane and imaged using the Vevo 770 High Resolution Imaging System (Visual Sonics, Inc.) and the RMV-707B 30 MHz probe. Measurements were obtained from M-mode sampling and integrated EKV images taken in the LV short axis at the mid-papillary level (Haldar et al., 2010). Measurements of pressure gradients across the constricted portion of the aorta were obtained by high frequency Doppler as previously described (Liu et al., 2012). Conscious tail-vein systolic blood pressure was measured using the BP2000 Blood Pressure Analysis System (Visitech Systems, Inc.) as recommended by the manufacturer. To allow mice to adapt to the apparatus, we performed daily blood pressure measurements for one week prior to beginning experiments. Treadmill endurance exercise testing was performed on a motorized mouse treadmill (Columbus Instruments) as previously described (Haldar et al., 2012).
Short-axis heart sections from the mid-ventricle were fixed in PBS/4% paraformaldehyde and embedded in paraffin. Cardiomyocyte cross sectional area was determined by staining with rhodamine-conjugated wheat-germ agglutinin (Vector Laboratories RL-1022) as quantified as previously described (Froese et al., 2011). Fibrosis was visualized using Masson's Trichrome staining kit (Biocare medical) with quantification of fibrotic area as previously described (Song et al., 2010). Terminal deoxynucleotidyl transferase dUTP nick-end label (TUNEL) staining and quantification was performed as previously described (Song et al., 2010) using the ApopTag Plus kit (Millipore) according to manufacturer's instructions. Myocardial capillary staining was performed in frozen LV sections using anti-PECAM-1 antibodies (EMD Millipore cat#CBL-1337) as previously described (Haldar et al., 2010).

[1] = adult mice, 50 mg/kg/day; cited from earlier work
[2] = JQ1 50 mg/kg/day IP from 1.5 days after TAC, out to 4 weeks

## Cc1sc2c(c1C)C(c1ccc(Cl)cc1)=N[C@@H](CC(=O)OC(C)(C)C)c1nnc(C)n1-2 [JQ1]
Mice subject to TAC; JQ1 50 mg/kg/day
  tolerability during TAC (activity, mortality, weight loss vs vehicle): well tolerated
Mice subject to TAC; [2]
  TAC-mediated LV cavity dilation (echocardiography): protected against
  TAC-mediated LV systolic dysfunction (echocardiography): protected against
  TAC-mediated LV wall thickening (echocardiography): protected against
Mice subject to TAC; JQ1 50 mg/kg/day, 4 weeks TAC
  pathologic cardiomegaly (HW/BW): inhibited
  pulmonary congestion (LW/BW): inhibited
Mice subject to TAC; JQ1 50 mg/kg/day, after TAC
  myocardial expression of canonical hypertrophic marker genes: inhibited
Mice subject to TAC; JQ1 50 mg/kg/day, sham surgery
  effect on LV structure or function in sham treated mice: no adverse effect
Mice subject to TAC; TAC mouse hearts, qRT-PCR
  TAC-mediated induction of c-Myc expression in vivo: no effect
Mice subject to TAC; TAC, 3, 11 and 28 days
  evolution of pathological gene expression program in the heart (microarray GEP): suppressed
Mice subject to TAC; heart tissue, 4 weeks of TAC
  apoptotic cell death (TUNEL): significantly attenuated
  capillary rarefaction (PECAM-1): significantly attenuated
  development of cardiomyocyte hypertrophy (wheat germ agglutinin, cardiomyocyte area): significantly attenuated
  myocardial fibrosis (Masson's Trichrome): significantly attenuated
[1]
  toxicity on chronic administration: without significant toxicity
